This passage reports IC50 results from US20100249132A1, “IMIDAZOLE DERIVATIVES” (MERCK PATENT GESELLSCHAFT MIT BESCHRANKTER HAFTUNG, priority 2007, published 2010).

This assay concerns the target T1, recombinant autotaxin (Homo sapiens, UniProt Q13822).
T1 construct: made in house; host or cells: Hi5 insect cells (baculovirus)
The assay can be described thus: Autotaxin test (enzyme test), Amplex Red fluorescence. Format: biochemical. As to conditions: substrate LPC 75 μM, Amplex Red detection, read-out: IC50 (autotaxin inhibition, enzyme test). A digest of the protocol:
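Recombinant human autotaxin from baculovirus/Hi5 (16 ng) was preincubated with compound 30 min at 22 °C. Reaction with 75 μM egg LPC ran 90 min at 37 °C. Released choline was coupled via alkaline phosphatase, choline oxidase and HRP to Amplex Red, read as resorufin fluorescence (ex485/em612) in kinetic mode.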
One may read the IC50 as the concentration that gives 50% inhibition. Take `CC(C)(CCc1nc(C(N)=O)c(NC(=O)Nc2ccc(Cl)cc2)[nH]1)C(=O)O` [Compound B75]: the IC50 is above 10 µM.

For the molecule `NC(=O)c1nc(CCCCN2C(=O)c3ccccc3C2=O)[nH]c1NC(=O)Nc1ccc(Cl)cc1` [Compound B77], the IC50 was above 10 µM. Take `NC(=O)c1nc(CN2C(=O)c3ccccc3C2=O)[nH]c1NC(=O)Nc1ccc(Cl)cc1` [Compound B78]: the IC50 is above 10 µM. As for `NC(=O)c1nc(CCC(=O)Nc2ccc3[nH]c(=O)oc3c2)[nH]c1NC(=O)Nc1ccc(Cl)cc1` [Compound B79], the figure is above 10 µM.

Turning to `NC(=O)c1nc(CCC(=O)Nc2ccc3[nH]nnc3c2)[nH]c1NC(=O)Nc1ccc(Cl)cc1` [Compound B80], the IC50 was above 10 µM. The value for `NC(=O)c1nc(Cc2ccc(OCC(=O)O)cc2)[nH]c1NC(=O)c1cc(-c2ccc(Cl)cc2)n[nH]1` [Compound B82] was above 10 µM.
